We go through six molecules from publication PMC8040415, “Para-chloro-2-[^18F]fluoroethyl-etomidate: A promising new PET radiotracer for adrenocortical imaging” (International Journal of Medical Sciences, 2021).

For one series, the target named is NHP adrenal gland tissue. Put plainly: Competition binding assay against 10 nM [^18F]CETO. On the set-up: species or system cynomolgus monkey (non-human primate. The following applies: residual binding of 10 nM [^18F]CETO, NHP adrenal gland tissue 200 µg/mL, 60 min, room temperature. Here is the method: (§1) Normal NHP adrenal tissue was weighed and homogenized in 20 volumes of ice-cold 0.32 M sucrose and stored in aliquots at -80 °C until use. For the saturation binding study, the homogenate was further diluted to 20 µg/mL in the assay. Triplicates of each ligand concentration in the range of 0.03-30 nmol/L [^18F]CETO, with and without a competing ligand (1 µmol/L metomidate), were incubated at room temperature for 60 min. For the competition binding assay, 200 µg/mL of NHP adrenal gland tissue was used. Triplicate tubes, containing 10 nM [^18F]CETO were incubated for 60 min at room temperature with three competing ligands, MTO, FETO and CETO, at concentrations between 0 and 30 nmol/L, respectively.
(§2) The incubations were terminated by filtration under vacuum through Whatman GF/C glass fibre filters, using a cell harvester (Brandel, Gaithersburg, MD). The filters were washed four times with 3 mL PBS buffer and transferred to scintillation tubes where the trapped radioactivity was measured in an automated gamma counter (Wizard 2480, PerkinElmer Downers Grove, IL, USA).
(§3) The saturation study was repeated twice with normal NHP adrenal gland tissue and the results were used to calculate the equilibrium dissociation constant, Kd, and the total target density for the binding of [^18F]CETO, Bmax. Values for IC50, Bmax and Kd were estimated by GraphPad Prism 8.2, using non-linear regression of the binding curves.

Series [1] is described as follows: PET/CT in non-human primate with kinetic modelling. Format: in vivo, Macaca fascicularis. The following applies: for time of peak uptake in the adrenal glands: SUVmean time-activity curves. The protocol:
One female NHP, Macaca fascicularis, was obtained from the Astrid Fagræus Laboratory, Karolinska Institute, Comparative Medicine. The NHP was used to compare the [^18F]CETO and [^11C]MTO biodistribution and their uptake over time in adrenal and liver.
Ketamine (~10 mg/kg) was used as a sedative. Whilst being transported to the PET centre at Uppsala University Hospital, the NPH was weighed and maintained on iterated ketamine injections (15 mg/kg/h). Saturation levels were continuously measured through pulse oximetry, and oxygen administered as needed.
At the PET centre, the NPH was intubated under propofol-induced anaesthesia. General anaesthesia was maintained by sevoflurane inhalation (1.5 - 5.0%) and artificial ventilation. Two venous catheters were placed - one for blood sampling and one for tracer administration. Body temperature, heart rate, ECG, pCO2, pO2, SaO2 and blood pressure levels were monitored throughout the PET study. A General Electric Discovery MI PET/CT scanner (GE Healthcare, Milwaukee, USA) was used.
PET/CT positioning was determined by using a scout CT scan, and 6.5 MBq/kg of [^11C]MTO was administered I.V. through the catheter. A baseline dynamic 90 min PET scan over the abdomen was started. After a sufficient waiting period, to allow for the radioactive decay of carbon-11, 4.2 MBq/kg of [^18F]CETO was injected I.V. A 90 min baseline dynamic PET scan was started and was followed by a 15 min whole-body PET examination. Thereafter, a blockage study was performed by administering 0.5 mg/kg etomidate I.V. for 20 min. At the end of etomidate administration, corresponding to approximately 150 min after the baseline [^18F]CETO injection, 19.3 MB/kg of [^18F]CETO was administered I.V., followed by a 90 min dynamic PET scan. The amount of radioactivity used in the blocking study was nearly fivefold that used during the baseline PET examination, in order to render any remaining activity from the baseline scan negligible. During both [^18F]CETO PET scans, discrete venous blood samples (~2 mL) were collected in heparinized tubes at 5, 10, 20, 40 and 80 min p.i. (3 mL at the last time point) of [^18F]CETO to measure radioactivity in whole blood and in plasma and for metabolite analysis. PET images were reconstructed using an ordered-subsets maximisation (OSEM) algorithm including time-of-flight information and resolution recovery. Dynamic images were reconstructed into time frames with increasing durations.
In the PET images, volumes of interest (VOIs) were drawn over representative subsets of aorta, adrenals, kidneys, liver, lungs, pancreas and spleen and transferred to all dynamic time frames to obtain time-activity curves (TACs), showing SUV as a function of time, after normalization to injected activity per body weight. Plasma TACs were determined by multiplying the aorta TAC with the mean plasma-to-whole blood ratio of the five analysed blood samples. Then, a metabolite-corrected input curve, representing intact tracer in plasma, was calculated by multiplying the plasma TAC with a sigmoid fit to the measured parent fraction data.
Adrenal time-activity curves were fitted using single-tissue as well as irreversible and reversible two-tissue compartment models. The optimal model to describe the data was determined using the Akaike information criterion. In addition, data were analysed using the Patlak and Logan graphical analysis methods, assuming irreversible and reversible kinetics, respectively. Additionally, whole-body net uptake rate parametric images were calculated using the Patlak method.

Series [2] concerns CYP11B1 and CYP11B2 in NHP adrenal gland homogenate. Put plainly: Saturation binding of [^18F]CETO in adrenal gland homogenate. On the set-up: species or system cynomolgus monkey (non-human primate. The following applies: saturation study. Here is the method:
as §1, §2, §3

Series [3] deals with normal NHP adrenal tissue. Put plainly: In vitro association/dissociation kinetics (LigandTracer). On the set-up: species or system cynomolgus monkey (non-human primate. To be noted: 1:1 kinetic binding model, NHP adrenal homogenate. The protocol:
To determine the in vitro kinetics for association and dissociation of [^18F]CETO to normal NHP adrenal tissue, 20 µL of homogenate, corresponding to 40 µg of adrenal, was pipetted to a Poly-D-lysine coated cell dish (CELLCOAT™, Greiner Bio-One GmbH, Austria) and allowed to dry for 15 min. Subsequently, the dishes were placed in the inclined rotating holder of a LigandTracer™ yellow instrument (Ridgeview Instruments AB, Uppsala, Sweden) and [^18F]CETO was added with concentrations ranging from 1 to 5 nM to measure the association rate. A higher concentration was added when the previous concentration had reached equilibrium. To measure the dissociation rate, the radioactive solution was replaced with buffer after the highest concentration reached equilibrium. Data were analyzed with TraceDrawer software (Ridgeview Instruments AB, Uppsala, Sweden) and the association rate constant (kon), dissociation rate constant (koff) and equilibrium dissociation constant (KD) were computed using a 1:1 kinetic binding model.

For series [4], the system named is human adrenal tumours and normal adrenal gland. Put plainly: Frozen section autoradiography. The following applies: 0.03 nmol/L [^18F]CETO, 60 min. Format: binding. The protocol: Tissues from normal human adrenal glands, liver, kidney, spleen and small intestine were used along with samples of different types of adrenal tumours, aldosterone-producing adenomas (APA), cortisol-producing adenomas (CPA), ACC, and pheochromocytoma (PCC). Normal adrenal gland tissues and spleen tissues from non-human primates (NHPs) were also utilized.
Specimens for autoradiography were prepared from snap-frozen tissue, stored at -70 °C, and divided by a cryotome into 20 μm thick slices. The slices were placed on Superfrost^TM glass slides and stored at -20 °C until the autoradiographic examination. Slides were pre-incubated at room temperature for 20 min in a PBS buffer. Duplicate slides were incubated in 0.03 nmol/L [^18F]CETO for 60 min, in the presence or absence of an excess of metomidate (0.45 µmol/L) to block the specific binding of [^18F]CETO. After incubation, slides were washed for 3 × 3 min in cold PBS buffer, followed by rapid immersion in water. Slides were then dried for 10 min at 37 °C and exposed to Super Resolution Storage Phosphor Screens (PerkinElmer, Downers Grove, IL, USA) for >240 min and scanned in a Cyclone Plus Phosphor Imager (PerkinElmer, Model C431200, Downers Grove, IL, USA).

Series [5] can be described thus: Ex-vivo organ distribution in rats. On the set-up: species or system Sprague Dawley rats. Here is the method:
A biodistribution study for [^18F]CETO was performed in thirty Sprague Dawley rats. A dose of 5.4±0.9 MBq [^18F]CETO was injected as a bolus in the lateral tail vein, to un-sedated rats. Three rats of each gender were then euthanized by high concentrations of CO2, at five predetermined time points; 10, 30, 60, 120 and 240 min post injection (p.i.), respectively, and their organs were harvested and weighed. Radioactivity content in the organs was measured in a well-type NaI(Tl) scintillation counter, applying correction for dead-time and for decay. The organ radioactivity readings were decay-corrected to the time of injection, and results were expressed as standardized uptake values (SUV).

Series [6] is described as follows: PET-MRI in rats with and without metomidate blocking. Format: in vivo, Sprague Dawley rats. From the text:
Sevoflurane inhalation was used for the induction and maintenance of anaesthesia, and an intravenous catheter was placed in the lateral tail vein. After the investigations, the mice/rats were euthanized and their organs harvested and weighed, followed by measurement of radioactivity (as previously described). PET and MRI images were acquired on a Nanoscan PET-3TMRI scanner (Mediso Mediso, Medical Imaging Systems, Budapest, Hungary).
Two male Sprague Dawley rats were positioned on the heated bed of the scanner and a dynamic PET acquisition of the abdomen was initiated immediately before injection of 4-5 MBq of [^18F]CETO. Metomidate (1 µmol/kg) was co-injected in one of the rats as a blocker. The dynamic PET scan was continued for 60 min and was followed by a whole-body static scan, 3 beds, 5 min per bed position ~90 min post injection, and by MRI of the abdomen.
PET acquisition was initiated and 4.0-4.8 MBq of […] was intravenously administered. One of the rats was given metomidate (1 µmol/kg) I.V., for a blockage study. An initial dynamic PET scan of the abdomen was performed for 60 min, followed by a baseline whole body PET scan for 15 min.

The nature of series [7]: Radio metabolite analysis of [^18F]CETO in NHP plasma. It is filed as in vivo, Macaca fascicularis. To be noted: for intact [^18F]CETO: NHP venous plasma.
Series [8] is described as follows: Observation of adverse effects after tracer injection, NHP. It is filed as in vivo, Macaca fascicularis. To be noted: recovery post-anaesthesia. From the text:
After the imaging sessions, the NHP was wakened and de-intubated and, once stable, transported back to its living facility.

Series [9] is described as follows: Observation of adverse effects after tracer injection, rats. The following applies: rats following [^18F]CETO injection.

Each structure is given as a SMILES string. Values joined by “and” are separate entries in the source; they are usually repeats but may differ in a detail not shown here. Equal entries are not always repeated. “Also recorded” adds a separate entry of the source.

`C[C@H](c1ccc(Cl)cc1)n1cncc1C(=O)OCCF` [CETO]: on NHP adrenal gland tissue, the IC50 stood at 5 nM.
On the same count and under the same terms, then `C[C@H](c1ccccc1)n1cncc1C(=O)OCCF` [FETO], with 3 nM; and `COC(=O)c1cncn1C(C)c1ccccc1` (centres unmarked) [MTO, metomidate], with 2 nM.
For the molecule `C[C@H](c1ccccc1)n1cncc1C(=O)O[11CH3]` [[^11C]MTO, [^11C]Metomidate, reference compound], in series [1] (NHP, 40 minutes p.i.), the highest adrenal-to-liver ratio is 1.5. For the same molecule, the “time of peak uptake in the adrenal glands” value in series [1] (NHP) is “approximately 40 min p.i”.
Consider `C[C@H](c1ccc(Cl)cc1)n1cncc1C(=O)OCC[18F]` [[^18F]CETO, para-chloro-2-[^18F]fluoroethyl-etomidate], for which the Bmax in series [2] is 0.0082 to 0.0097 nmol/mg; in series [2] (separate experiments A and B), 0.0097 nmol/mg and 0.0082 nmol/mg. The Kd is 0.66 nM and 0.66 to 0.67 nM and 0.67 nM in [2] (room temperature, 60 min, read-out: equilibrium dissociation constant, Kd); 0.59 nM in series [3] (read-out: Kd value derived from the rate constants). In series [3], the koff was 0.00035 s⁻¹. Also, the “uptake in APAs compared to that of the normal adrenal gland” value in series [4] is reported as “approximately threefold”. In addition, the “time of peak uptake in the adrenal glands” value in series [5] (ex-vivo biodistribution) is recorded as 2 hr p.i; in [1] (NHP), over 85 min p.i. Further, in [5] (other than adrenal glands and early lungs and pancreas, bone and urinary bladder are exceptions), the “uptake in all other organs and tissues (SUV)” value is recorded as about 1 SUV. Further, the route of elimination result in series [6] and in series [1] (NHPs) was “mainly renal” in each case. Also, the “time of peak adrenal uptake” value in series [6] is 120 min p.i. Besides, in [1] (NHP, 85 min p.i.), the highest adrenal-to-liver ratio is recorded as over 5. The “rate constant k3 in the adrenal glands after blocking” value in [1] (NHP, after etomidate 0.5 mg/kg, irreversible two-tissue compartment model) is given as “reduced to zero”. Besides, the results for the “intact [^18F]CETO” value in [7] (5 min p.i.) and in series [7] (80 min p.i.) were 56% and 11%, respectively. Also, the “[^18F]CETO share of radioactivity in plasma” value in series [7] (NHP, final observation time point 90 min p.i.) is “approximately 10%”. In [7] (female, cynomolgus monkey, plasma, intravenous, NHP, bi-phasic metabolism, read-out: plasma half-life, fast first phase), the half-life was about 10 min. The adverse effects entry in series [8] is given as “no adverse effects”; in series [9] it was “No adverse effects”.
For the molecule `C[C@H](c1ccccc1)n1cncc1C(=O)OCC[18F]` [[^18F]FETO, 2-[^18F]fluoroethyl-etomidate], in series [6] (metomidate 1 µmol/kg), the “blocking of adrenal uptake with metomidate” value was “unable to block; also recorded: not possible to block”.

In general, IC50 refers to the midpoint of a concentration-inhibition curve. As usually defined, the Kd is the constant that tells how readily two partners part at equilibrium. Usually koff stands for a measure of how fast the partners let go of each other. Usually half-life stands for the time in which the quantity being followed falls by half.
